Source: ChEMBL document CHEMBL1759965, “Synthesis and pharmacological evaluation of bivalent antagonists of the nociceptin opioid receptor” (Eur J Med Chem, 2011)
Activity calls are given as the source filed them. The rule behind the calls is not given here.

How the values were obtained:
[1] = target: Delta-type opioid receptor (Homo sapiens) (UniProt P41143); assay: Displacement of [3H]-naltrindole from human delta opioid receptor expressed in human HEK293 cells after 2 hrs by scintillation counting; type: cell-based
Chain of Delta-type opioid receptor (Homo sapiens) (P41143 whole entry): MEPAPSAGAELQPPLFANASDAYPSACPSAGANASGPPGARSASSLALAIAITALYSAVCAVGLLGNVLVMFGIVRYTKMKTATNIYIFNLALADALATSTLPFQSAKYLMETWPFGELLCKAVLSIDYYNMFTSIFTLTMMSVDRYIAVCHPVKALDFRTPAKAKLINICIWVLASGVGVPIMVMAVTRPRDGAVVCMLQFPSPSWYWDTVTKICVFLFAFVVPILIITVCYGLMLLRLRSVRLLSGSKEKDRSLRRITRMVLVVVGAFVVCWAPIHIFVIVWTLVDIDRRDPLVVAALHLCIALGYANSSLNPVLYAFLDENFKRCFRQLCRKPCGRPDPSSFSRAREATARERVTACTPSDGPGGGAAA

Mu-type opioid receptor = Mu-type opioid receptor (Homo sapiens, UniProt P35372); assay: Displacement of [3H]-naltrindole from human mu opioid receptor expressed in CHO cells after 2 hrs by scintillation counting; type: cell-based
Chain of Mu-type opioid receptor (P35372 whole entry): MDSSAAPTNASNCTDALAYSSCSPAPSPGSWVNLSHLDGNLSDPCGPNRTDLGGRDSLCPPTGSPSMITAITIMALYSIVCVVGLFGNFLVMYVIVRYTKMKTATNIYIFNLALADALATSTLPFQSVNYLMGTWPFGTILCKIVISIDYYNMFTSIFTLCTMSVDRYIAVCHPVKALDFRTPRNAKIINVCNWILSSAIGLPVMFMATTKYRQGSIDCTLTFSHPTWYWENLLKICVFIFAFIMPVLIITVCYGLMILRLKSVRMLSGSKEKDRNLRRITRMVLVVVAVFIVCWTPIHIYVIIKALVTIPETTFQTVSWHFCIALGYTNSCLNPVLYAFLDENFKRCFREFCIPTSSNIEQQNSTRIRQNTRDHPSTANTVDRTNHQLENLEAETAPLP

Homo sapiens [2] = species on record: Homo sapiens; assay: Selectivity ratio of IC50 for human kappa opioid receptor to IC50 for human NOP receptor
Homo sapiens [3] = species on record: Homo sapiens; assay: Selectivity ratio of IC50 for human mu opioid receptor to IC50 for human NOP receptor
Nociceptin receptor [4] = target: T1, Nociceptin receptor (Homo sapiens, UniProt P41146); assay: Antagonist activity at human NOP receptor expressed in human HEK293 cells assessed as inhibition of GTPgammaS binding in presence of 300 nM GDP relative to control; type: functional, cell-based
T1 sequence (P41146 whole entry): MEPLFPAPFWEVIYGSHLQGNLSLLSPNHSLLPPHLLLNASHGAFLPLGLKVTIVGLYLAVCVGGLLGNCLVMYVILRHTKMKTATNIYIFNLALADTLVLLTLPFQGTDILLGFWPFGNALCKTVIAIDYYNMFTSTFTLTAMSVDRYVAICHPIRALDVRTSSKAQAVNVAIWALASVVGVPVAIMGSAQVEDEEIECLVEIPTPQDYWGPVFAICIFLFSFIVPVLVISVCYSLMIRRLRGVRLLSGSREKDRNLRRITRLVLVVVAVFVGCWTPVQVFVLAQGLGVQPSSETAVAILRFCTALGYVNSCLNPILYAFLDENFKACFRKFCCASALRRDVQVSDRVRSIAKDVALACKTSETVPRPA

Nociceptin receptor [5] = target: T1, Nociceptin receptor; assay: Displacement of [125I]Tyr14-nociceptin from human NOP receptor expressed in human HEK293 cells after 90 mins by scintillation counting
[6] = target: Kappa-type opioid receptor (Homo sapiens, UniProt P41145); assay: Displacement of [3H]-diprenorphine from human kappa opioid receptor expressed in human HEK293 cells after 2 hrs by scintillation counting
Chain of Kappa-type opioid receptor (P41145 whole entry): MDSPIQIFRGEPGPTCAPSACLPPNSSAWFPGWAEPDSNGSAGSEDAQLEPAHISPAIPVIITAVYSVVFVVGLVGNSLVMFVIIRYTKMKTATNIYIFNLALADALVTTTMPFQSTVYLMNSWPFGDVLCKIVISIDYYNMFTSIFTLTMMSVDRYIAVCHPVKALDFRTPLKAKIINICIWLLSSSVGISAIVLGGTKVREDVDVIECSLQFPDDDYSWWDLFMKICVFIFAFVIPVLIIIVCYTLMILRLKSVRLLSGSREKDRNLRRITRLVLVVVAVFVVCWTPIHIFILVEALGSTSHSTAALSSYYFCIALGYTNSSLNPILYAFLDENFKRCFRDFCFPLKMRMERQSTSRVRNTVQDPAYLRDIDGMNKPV

| SMILES | Activity [1] | IC50 (Mu-type opioid receptor) | Ratio IC50 (Homo sapiens [2]) | Ratio IC50 (Homo sapiens [3]) | Activity (Nociceptin receptor [4]) | IC50 (Nociceptin receptor [5]) | IC50 [6] |
| --- | --- | --- | --- | --- | --- | --- | --- |
| CCCCNCc1ccc(OCc2ccccc2C(=O)Nc2ccc3nc(C)cc(N)c3c2)cc1 | inactive | 5110 nM | 10 | 8.6 | Active | 1120 nM | 5920 nM |
| CCCNCc1ccc(OCc2ccccc2C(=O)Nc2ccc3nc(C)cc(N)c3c2)cc1 | inactive | 3350 nM | 45 | 49 | Active | 83 nM | 3080 nM |
| Cc1cc(N)c2cc(NC(=O)c3ccccc3COc3ccc(CNCCCCCN)cc3)ccc2n1 | inactive | 4880 nM | 18 | 41 | Active | 207 nM | 2150 nM |
| CCCCCC/N=C/c1ccc(OCc2ccccc2C(=O)Nc2ccc3nc(C)cc(N)c3c2)cc1 | inactive | – | – | – | Active | 209 nM | – |
| Cc1cc(N)c2cc(NC(=O)c3ccccc3COc3ccc(CNCCCCN)cc3)ccc2n1 | inactive | 5330 nM | 7.2 | 9 | Active | 800 nM | 4260 nM |
| Cc1cc(N)c2cc(NC(=O)c3ccccc3COc3ccc(CNCCCN)cc3)ccc2n1 | inactive | 1400 nM | 14 | 12 | Active | 160 nM | 1650 nM |
| CCCC/N=C/c1ccc(OCc2ccccc2C(=O)Nc2ccc3nc(C)cc(N)c3c2)cc1 | inactive | – | – | – | Active | 309 nM | – |
| CCCCCNCc1ccc(OCc2ccccc2C(=O)Nc2ccc3nc(C)cc(N)c3c2)cc1 | inactive | 4450 nM | 13 | 16 | Active | 732 nM | 3670 nM |
| CCCCCCNCc1ccc(OCc2ccccc2C(=O)Nc2ccc3nc(C)cc(N)c3c2)cc1 | inactive | 2590 nM | 1.2 | 2.6 | Active | 1220 nM | 1160 nM |
| CCc1ccc(OCc2ccccc2C(=O)Nc2ccc3nc(C)cc(N)c3c2)cc1 | inactive | 1510 nM | 250 | 50 | Active | 30 nM | 7510 nM |
| CCCCC/N=C/c1ccc(OCc2ccccc2C(=O)Nc2ccc3nc(C)cc(N)c3c2)cc1 | inactive | – | – | – | Active | 186 nM | – |
| CCCCCCCCC/N=C/c1ccc(OCc2ccccc2C(=O)Nc2ccc3nc(C)cc(N)c3c2)cc1 | inactive | – | – | – | Active | 154 nM | – |
| Cc1cc(N)c2cc(NC(=O)c3ccccc3COc3ccc(CN)cc3)ccc2n1 | inactive | – | – | – | Active | 116 nM | – |
| Cc1cc(N)c2cc(NC(=O)c3ccccc3COc3ccc(C=O)cc3)ccc2n1 | inactive | – | – | – | Active | 207 nM | – |
| CCCCCCC/N=C/c1ccc(OCc2ccccc2C(=O)Nc2ccc3nc(C)cc(N)c3c2)cc1 | inactive | – | – | – | Active | 142 nM | – |
| CCCCCCCC/N=C/c1ccc(OCc2ccccc2C(=O)Nc2ccc3nc(C)cc(N)c3c2)cc1 | inactive | – | – | – | Active | 147 nM | – |
| CCC/N=C/c1ccc(OCc2ccccc2C(=O)Nc2ccc3nc(C)cc(N)c3c2)cc1 | inactive | – | – | – | Active | 98.9 nM | – |
| CCCCCCCCCC/N=C/c1ccc(OCc2ccccc2C(=O)Nc2ccc3nc(C)cc(N)c3c2)cc1 | inactive | – | – | – | Active | 184 nM | – |

Now from value to molecule:

| Activity [1] | IC50 (Mu-type opioid receptor) | Ratio IC50 (Homo sapiens [2]) | Ratio IC50 (Homo sapiens [3]) | Activity (Nociceptin receptor [4]) | IC50 (Nociceptin receptor [5]) | IC50 [6] | SMILES |
| --- | --- | --- | --- | --- | --- | --- | --- |
| inactive | 6000 nM | 1.5 | 7.4 | Active | 1110 nM | 1220 nM | Cc1cc(N)c2cc(NC(=O)c3ccccc3COc3ccc(CNCCCCCCN)cc3)ccc2n1 |
| inactive | 1160 nM | 36 | 40 | Active | 28.1 nM | 1050 nM | Cc1cc(N)c2cc(NC(=O)c3ccccc3COc3ccc(CNCCCCCCCCCNCc4ccc(OCc5ccccc5C(=O)Nc5ccc6nc(C)cc(N)c6c5)cc4)cc3)ccc2n1 |
| inactive | 1040 nM | 33 | 34 | Active | 30.1 nM | 1020 nM | Cc1cc(N)c2cc(NC(=O)c3ccccc3COc3ccc(CNCCCCCCCNCc4ccc(OCc5ccccc5C(=O)Nc5ccc6nc(C)cc(N)c6c5)cc4)cc3)ccc2n1 |
| inactive | 1590 nM | 27 | 39 | Active | 56.6 nM | 1090 nM | Cc1cc(N)c2cc(NC(=O)c3ccccc3COc3ccc(CNCCCCNCc4ccc(OCc5ccccc5C(=O)Nc5ccc6nc(C)cc(N)c6c5)cc4)cc3)ccc2n1 |
| inactive | 4340 nM | 15 | 13 | Active | 483 nM | 4950 nM | CCCCCCCCNCc1ccc(OCc2ccccc2C(=O)Nc2ccc3nc(C)cc(N)c3c2)cc1 |
| inactive | 2170 nM | 13 | 11 | Active | 305 nM | 2560 nM | CCCCCCCCCNCc1ccc(OCc2ccccc2C(=O)Nc2ccc3nc(C)cc(N)c3c2)cc1 |
| inactive | 1980 nM | 6.2 | 6.6 | Active | 668 nM | 1850 nM | CCCCCCCNCc1ccc(OCc2ccccc2C(=O)Nc2ccc3nc(C)cc(N)c3c2)cc1 |
| inactive | 1390 nM | 30 | 31 | Active | 71.7 nM | 1350 nM | Cc1cc(N)c2cc(NC(=O)c3ccccc3COc3ccc(CNCCCCCCNCc4ccc(OCc5ccccc5C(=O)Nc5ccc6nc(C)cc(N)c6c5)cc4)cc3)ccc2n1 |
| inactive | – | – | – | Active | 114 nM | – | Cc1cc(N)c2cc(NC(=O)c3ccccc3COc3ccc(/C=N/CCCCCCCC/N=C/c4ccc(OCc5ccccc5C(=O)Nc5ccc6nc(C)cc(N)c6c5)cc4)cc3)ccc2n1 |
| inactive | – | – | – | Active | 63.1 nM | – | Cc1cc(N)c2cc(NC(=O)c3ccccc3COc3ccc(/C=N/CCCCCCC/N=C/c4ccc(OCc5ccccc5C(=O)Nc5ccc6nc(C)cc(N)c6c5)cc4)cc3)ccc2n1 |
| inactive | – | – | – | Active | 83.3 nM | – | Cc1cc(N)c2cc(NC(=O)c3ccccc3COc3ccc(/C=N/CCCCCC/N=C/c4ccc(OCc5ccccc5C(=O)Nc5ccc6nc(C)cc(N)c6c5)cc4)cc3)ccc2n1 |
| inactive | 1320 nM | 31 | 45 | Active | 32.7 nM | 900 nM | Cc1cc(N)c2cc(NC(=O)c3ccccc3COc3ccc(CNCCCCCCCCCCNCc4ccc(OCc5ccccc5C(=O)Nc5ccc6nc(C)cc(N)c6c5)cc4)cc3)ccc2n1 |
| inactive | 2510 nM | 28 | 46 | Active | 76.2 nM | 1500 nM | Cc1cc(N)c2cc(NC(=O)c3ccccc3COc3ccc(CNCCCCCNCc4ccc(OCc5ccccc5C(=O)Nc5ccc6nc(C)cc(N)c6c5)cc4)cc3)ccc2n1 |
| inactive | – | – | – | Active | 50.9 nM | – | Cc1cc(N)c2cc(NC(=O)c3ccccc3COc3ccc(/C=N/CCCCC/N=C/c4ccc(OCc5ccccc5C(=O)Nc5ccc6nc(C)cc(N)c6c5)cc4)cc3)ccc2n1 |
| inactive | 1900 nM | 37 | 56 | Active | 31.6 nM | 1270 nM | Cc1cc(N)c2cc(NC(=O)c3ccccc3COc3ccc(CNCCCCCCCCNCc4ccc(OCc5ccccc5C(=O)Nc5ccc6nc(C)cc(N)c6c5)cc4)cc3)ccc2n1 |
| inactive | – | – | – | Active | 35.6 nM | – | Cc1cc(N)c2cc(NC(=O)c3ccccc3COc3ccc(/C=N/CCCC/N=C/c4ccc(OCc5ccccc5C(=O)Nc5ccc6nc(C)cc(N)c6c5)cc4)cc3)ccc2n1 |
| inactive | – | – | – | Active | 48 nM | – | Cc1cc(N)c2cc(NC(=O)c3ccccc3COc3ccc(/C=N/CCC/N=C/c4ccc(OCc5ccccc5C(=O)Nc5ccc6nc(C)cc(N)c6c5)cc4)cc3)ccc2n1 |
| inactive | – | – | – | Active | 82.7 nM | – | Cc1cc(N)c2cc(NC(=O)c3ccccc3COc3ccc(/C=N/CCCCCCCCC/N=C/c4ccc(OCc5ccccc5C(=O)Nc5ccc6nc(C)cc(N)c6c5)cc4)cc3)ccc2n1 |
| inactive | – | – | – | Active | 82.1 nM | – | Cc1cc(N)c2cc(NC(=O)c3ccccc3COc3ccc(/C=N/CCCCCCCCCC/N=C/c4ccc(OCc5ccccc5C(=O)Nc5ccc6nc(C)cc(N)c6c5)cc4)cc3)ccc2n1 |
